The values that follow are results of earlier work, collected in patent US20200069777A1, “ANTIMICROBIAL COMPOSITIONS AND FORMULATIONS” (Matoke Holdings Limited, priority 2016, published 2020).

For the series the following is noted: 20° C. and 1 atm.

On to `O=C[C@H](O)[C@@H](O)[C@H](O)[C@H](O)CO` [Glucose], for which the solubility was 90 g/100 g water.
